Consider 25 molecules from the supplement of paper PMC12613149.

Data set [1] can be described thus: reversed-phase LC retention time (C18, 15 min MeOH gradient); higher = more hydrophobic / later elution. As for the experimental part: (§1)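 Reference mixture of environmental contaminants analysed by RP-LC (BEH C18, 50 °C; ESI+ with water/MeOH plus formic acid and ammonium formate, ESI- with ammonium bicarbonate) coupled to a timsTOF Pro 2 with trapped ion mobility in nitrogen (ramp/accumulation 100 ms). CCS was calibrated with Agilent tune mix (CCS compendium) and averaged over five injections at 0.5-500 ng/mL. The table reports the lowest-CCS (putative monomer) peak; retention times are on the same gradient.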

A short description of data set [2]: collision cross section (TIMS, N2 drift gas) of the primary ion; higher = larger gas-phase ion size. Here is the method: as §1
The mark [3] stands for this setting: ionization mode: ESI+, ion species: [M+H]+.
The mark [4] stands for this setting: ionization mode: ESI-, ion species: [M-H]-.

Regarding `NC(=O)N1c2ccccc2CC(=O)c2ccccc21` [Oxcarbazepine], in data set [1] (setting [3]), the “reversed-phase LC retention time” value was 10.7 min. The molecule further showed a collision cross section in data set [2] (setting [3]) of 155.46 Å².

On to `CC(=O)OCC(=O)[C@@]12OC3(CCCC3)O[C@@H]1C[C@H]1[C@@H]3CCC4=CC(=O)C=C[C@]4(C)[C@@]3(F)[C@@H](O)C[C@@]12C` [Amcinonide], for which the “reversed-phase LC retention time” value in data set [1] (setting [3]) is 15.6 min. Also, the collision cross section in data set [2] (setting [3]) is listed as 217.58 Å².

Turning to `O=C(O)c1cc(C(=O)O)cc([N+](=O)[O-])c1` [5-Nitroisophthalic acid], the “reversed-phase LC retention time” value in data set [1] (setting [4]) amounted to 0.96 min. For the same molecule, the collision cross section in data set [2] (setting [4]) was 137.91 Å².

Consider `N#Cc1ccc(C/C(=N\NC(=O)Nc2ccc(OC(F)(F)F)cc2)c2cccc(C(F)(F)F)c2)cc1` [Metaflumizone], for which the entries for the “reversed-phase LC retention time” value in data set [1] (setting [3]) and in data set [1] (setting [4]) were 16.8 min and 17.3 min, respectively. Further, the collision cross section came to 213.54 Å² in data set [2] (setting [3]) and 221.65 Å² in data set [2] (setting [4]).

For `Cc1nc2n(c(=O)c1CCN1CCC(c3noc4cc(F)ccc34)CC1)CCCC2` [Risperidone], in data set [1] (setting [3]), the “reversed-phase LC retention time” value came to 10.4 min. For the same molecule, the collision cross section in data set [2] (setting [3]) was determined as 205.9 Å².

Take `COc1cc(C2c3cc4c(cc3C(OC3OC5COC(C)OC5C(O)C3O)C3COC(=O)C23)OCO4)cc(OC)c1O` (stereo not given) [Etoposide_1]: the “reversed-phase LC retention time” value in data set [1] (setting [4]) is 11.9 min. In addition, in data set [2] (setting [4]), the collision cross section amounted to 222.47 Å².

Take `O=S(=O)(c1ccc(O)cc1)c1ccc(O)cc1` [Bisphenol S]: the results for the “reversed-phase LC retention time” value in data set [1] (setting [3]) and in data set [1] (setting [4]) were 9.38 min and 7.15 min, respectively. The collision cross section in data set [2] (setting [3]) turned out to be 155.2 Å²; in data set [2] (setting [4]) it was 154.29 Å².

Take `O=C(NCCc1ncc(C(F)(F)F)cc1Cl)c1ccccc1C(F)(F)F` [Fluopyram]: the “reversed-phase LC retention time” value in data set [1] (setting [3]) worked out at 14.7 min; in data set [1] (setting [4]), 15.2 min. The collision cross section stood at 177.5 Å² in data set [2] (setting [3]) and 179.2 Å² in data set [2] (setting [4]).

With `CC(C)(c1ccc(O)cc1)c1ccc(O)cc1` [Bisphenol A], in data set [1] (setting [4]), the “reversed-phase LC retention time” value worked out at 13.4 min. The molecule also displayed a collision cross section in data set [2] (setting [4]) of 161.33 Å².

Regarding `O=C(O)Cc1ccccc1Nc1c(Cl)cccc1Cl` [Diclofenac], the “reversed-phase LC retention time” value in data set [1] (setting [3]) was 15.3 min; in data set [1] (setting [4]) it was 13.3 min. For the same molecule, the collision cross section in data set [2] (setting [3]) was determined as 159.21 Å²; in data set [2] (setting [4]) it was 161.99 Å².

In the case of `Oc1nc(Cl)c(Cl)cc1Cl` [3,5,6-Trichloro-2-pyridinol], the “reversed-phase LC retention time” value in data set [1] (setting [4]) is 11.2 min. For the same molecule, the collision cross section in data set [2] (setting [4]) amounted to 125.88 Å².

Consider `C[C@H]1c2cccc(O)c2C(=O)C2=C(O)[C@]3(O)C(=O)C(C(N)=O)=C(O)[C@@H](N(C)C)[C@@H]3[C@@H](O)[C@@H]21` [Doxycycline], for which, in data set [1] (setting [4]), the “reversed-phase LC retention time” value was 10.2 min. In data set [2] (setting [4]), this molecule displayed a collision cross section of 197.93 Å².

As to `CCC(=O)OCC(=O)C1(OC(=O)CC)C(C)CC2C3CCC4=CC(=O)C=CC4(C)C3(F)C(O)CC21C` (stereo not given) [Betamethasone dipropionate], the “reversed-phase LC retention time” value came to 15.7 min in data set [1] (setting [3]) and 16.2 min in data set [1] (setting [4]). Also, the collision cross section was determined as 220.81 Å² in data set [2] (setting [3]) and 216.67 Å² in data set [2] (setting [4]).

On to `CCCCC(CC)COP(=O)(O)OCC(CC)CCCC` (stereo not given) [Bis(2-ethylhexyl)phosphate], for which the “reversed-phase LC retention time” value in data set [1] (setting [3]) worked out at 19.8 min; in data set [1] (setting [4]), 17.1 min. Further, the collision cross section in data set [2] (setting [3]) came out at 223.46 Å²; in data set [2] (setting [4]), 188.09 Å².

For the molecule `COC(=O)C(c1ccccc1Cl)N1CCc2sccc2C1` (stereo not given) [Clopidogrel], in data set [1] (setting [3]), the “reversed-phase LC retention time” value was found to be 15.4 min. Also, the collision cross section in data set [2] (setting [3]) is 170.12 Å².

In the case of `O=C(O)c1ccccc1C(=O)OCc1ccccc1` [Monobenzyl phthalate], the “reversed-phase LC retention time” value is 17.1 min in data set [1] (setting [3]) and 10.7 min in data set [1] (setting [4]). Besides, the collision cross section in data set [2] (setting [3]) is reported as 155.89 Å²; in data set [2] (setting [4]) it was 159.96 Å².

As for `CO/N=C(/C1=NOCCO1)c1ccccc1Oc1ncnc(Oc2ccccc2Cl)c1F` [Fluoxastrobin], the “reversed-phase LC retention time” value in data set [1] (setting [3]) worked out at 14.8 min. The collision cross section in data set [2] (setting [3]) is reported as 205.37 Å².

Take `CN=C(NC#N)NCCSCc1nc[nH]c1C` [Cimetidine]: the entries for the “reversed-phase LC retention time” value in data set [1] (setting [3]) and in data set [1] (setting [4]) were 6.06 min and 8.43 min, respectively. Moreover, the results for the collision cross section in data set [2] (setting [3]) and in data set [2] (setting [4]) were 158.06 Å² and 165.63 Å², respectively.

On to `COc1ccccc1Oc1c(NS(=O)(=O)c2ccc(C(C)(C)C)cc2)nc(-c2ncccn2)nc1OCCO` [Bosentan], for which the “reversed-phase LC retention time” value in data set [1] (setting [3]) is 14.8 min. In addition, the collision cross section in data set [2] (setting [3]) came out at 231.31 Å².

As to `CCNc1nc(NCC)[nH]c(=O)n1` [Simazine 2-Hydroxy], the “reversed-phase LC retention time” value was 7.22 min in data set [1] (setting [3]) and 8.55 min in data set [1] (setting [4]). For the same molecule, the collision cross section in data set [2] (setting [3]) is recorded as 140.79 Å²; in data set [2] (setting [4]), 140.22 Å².

Consider `Cn1cc(C(=O)Nc2ccccc2-c2cc(F)c(F)c(F)c2)c(C(F)F)n1` [Fluxapyroxad], for which the figures for the “reversed-phase LC retention time” value in data set [1] (setting [3]) and in data set [1] (setting [4]) were 14.4 min and 14.7 min, respectively. Besides, the collision cross section in data set [2] (setting [3]) was 178.14 Å²; in data set [2] (setting [4]), 180.37 Å².

With `O=S(=O)(O)CCC(F)(F)C(F)(F)C(F)(F)C(F)(F)C(F)(F)C(F)(F)F` [6:2 fluorotelomer sulfonic acid], in data set [1] (setting [4]), the “reversed-phase LC retention time” value stood at 14.7 min. In addition, the collision cross section in data set [2] (setting [4]) came to 168.03 Å².

Take `O=C1CC2(CCCCC2)CN1` [Gabapentin-Lactam]: the “reversed-phase LC retention time” value in data set [1] (setting [3]) worked out at 11.2 min. In addition, the collision cross section in data set [2] (setting [3]) is given as 135.35 Å².

For `CCC1(C2OC(C3OC(O)(CO)C(C)CC3C)CC2C)CCC(C2(C)CCC3(CC(O)C(C)C(C(C)C(OC)C(C)C(=O)O)O3)O2)O1` (stereo not given) [Monensin], the “reversed-phase LC retention time” value in data set [1] (setting [4]) was determined as 17.5 min. This molecule had a collision cross section in data set [2] (setting [4]) of 244.26 Å².

In the case of `O=C(NCc1ncc(C(F)(F)F)cc1Cl)c1c(Cl)cccc1Cl` [Fluopicolide], the “reversed-phase LC retention time” value in data set [1] (setting [3]) turned out to be 14.4 min. This molecule also gave a collision cross section in data set [2] (setting [3]) of 176.08 Å².
